Source: doi:10.1101/2021.11.30.469594v1 (biorxiv, 2021)
Where two headings read alike, the source gives them in different places.

Target: PRPK/TPRKB complex (also PRPK/PRPKB; PRPK aka TP53RK) (Homo sapiens, UniProt Q96S44)
Test: ITC
Type: binding

PRPK/TPRKB complex (also PRPK/PRPKB; PRPK aka TP53RK), sequence (Q96S44 whole entry, other chains not shown): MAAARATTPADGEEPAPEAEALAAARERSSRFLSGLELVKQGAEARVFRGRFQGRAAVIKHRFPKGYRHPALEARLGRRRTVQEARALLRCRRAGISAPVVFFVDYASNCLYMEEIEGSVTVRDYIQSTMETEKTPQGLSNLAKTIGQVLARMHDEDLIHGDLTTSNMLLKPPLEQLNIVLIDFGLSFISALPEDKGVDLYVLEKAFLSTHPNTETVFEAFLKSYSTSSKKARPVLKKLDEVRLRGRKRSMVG

Row | Compound | Kd [µM] | other results
1 | Nc1ccc2c(c1)C(=O)N(C1CCC(=O)NC1=O)C2=O (centres unmarked) [Compound2, 5-amino-2-(2,6-dioxopiperidin-3-yl)isoindoline-1,3-dione] | 6.1 ± 0.5 | –
2 | C[C@@]1(N2C(=O)c3cccc(O)c3C2=O)CCC(=O)NC1=O [DB-A5, (R)-4-hydroxy-2-(3-methyl-2,6-dioxopiperidin-3-yl)isoindoline-1,3-dione] | – | Kd (pH […] °C, […] DMSO, crystal structure solved here, ATP site): 1.8 ± 0.4 µM
3 | C[C@]1(N2C(=O)c3cccc(O)c3C2=O)CCC(=O)NC1=O [DB-B5, (S)-4-hydroxy-2-(3-methyl-2,6-dioxopiperidin-3-yl)isoindoline-1,3-dione] | – | Kd (pH […] °C, […] DMSO): 27 µM
4 | COc1cccc2c1C(=O)N([C@]1(C)CCC(=O)NC1=O)C2=O [DB-A5-OMe, (R)-4-methoxy-2-(3-methyl-2,6-dioxopiperidin-3-yl)isoindoline-1,3-dione] | > 1000 | –
5 | O=C1CCC(N2C(=O)c3cccc(O)c3C2=O)C(=O)N1 (centres unmarked) [TXM-01-027-1, 2-(2,6-dioxopiperidin-3-yl)-4-hydroxyisoindoline-1,3-dione] | 2.2 | –
